The text below walks through data of ChEMBL document CHEMBL1138702, “Determination of the free radical scavenging activity of dihydropyran-2,4-diones” (Bioorg Med Chem Lett, 2004).

A short description of assay [1]: Antioxidant ability determined by the parameter antiradical power that is related to the factor EC50.
The nature of assay [2]: Concentration required to decrease the initial concentration of 2,2-diphenyl-1-picrylhydrazyl (DPPH) by 50% after 60 min. (In general: Loss of DPPH colour is used to gauge radical scavenging.)

The compound `O=C1CC(=O)OC(c2ccccc2)C1` (stereo not drawn) came in with an ARP in assay [1] of 0.71 m/M. For the same compound, the response in assay [2] was half-maximal at 1.4 mM (EC50).
`COc1ccc(C2CC(=O)CC(=O)O2)cc1` (stereo not drawn): the ARP in assay [1] is 0.13 m/M. Besides, a half-maximal effect in assay [2] (EC50) was put at 7.61 mM.
`COc1ccc(C2CC(=O)CC(=O)O2)cc1OC` (stereo not drawn) displayed an ARP in assay [1] of 0.14 m/M. Further, in assay [2], the EC50 (as a rule, the concentration needed to bring the measured effect to its halfway point) is 7.13 mM.
The corresponding values for `C/C=C/C1CC(=O)CC(=O)O1` (stereo not drawn) are 0.7 m/M and 1.44 mM.
